# Results as given in patent US4698350A, “1-ethyl-6-fluoro-1,4-dihydro- 7-(2,6-dimethyl-4-pyridinyl)-4-oxo-3-quinolinecarboxylic acid and antibacterial use thereof” (Sterling Drug Inc., priority 1984, dated 1987).
# How the values were obtained:
# Format in all cases: cell-based
# E. coli 2350 = assay: In vitro antibacterial MIC/MBC test; conditions: Escherichia coli
# How it was run: (§1)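 Broth microdilution with two-fold serial dilutions in MHB (BHI+1% NHS for streptococci), final inoculum approx. 1×10^5 cells/ml, 37° C. for 18-20 hours. MIC is the lowest concentration preventing visible growth. For MBC, wells were subcultured onto MHA or BHI agar+10% NHS; the MBC is the lowest concentration yielding no recognizable colony.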
# E. coli AH719 = assay: In vitro antibacterial MIC/MBC test; conditions: Escherichia coli
# How it was run: as §1
# P. aeruginosa (7700) = assay: In vitro antibacterial MIC/MBC test; conditions: Pseudomonas aeruginosa, ATCC7700; P. aeruginosa ATCC No. 7700
# How it was run: as §1
# E. coli (8739) = assay: In vitro antibacterial MIC/MBC test; conditions: Escherichia coli, ATCC8739; E. coli ATCC No. 8739
# How it was run: as §1
# P. aeruginosa MGH-2 = assay: In vitro antibacterial MIC/MBC test; conditions: Pseudomonas aeruginosa, MGH2
# How it was run: as §1
# P. aeruginosa (27853) = assay: In vitro antibacterial MIC/MBC test; conditions: Pseudomonas aeruginosa, ATCC27853; P. aeruginosa ATCC No. 27853
# How it was run: as §1
# P. aeruginosa (15442) = assay: In vitro antibacterial MIC/MBC test; conditions: Pseudomonas aeruginosa, ATCC15442; P. aeruginosa ATCC No. 15442
# How it was run: as §1
# E. coli Vogel = assay: In vitro antibacterial MIC/MBC test; conditions: Escherichia coli
# How it was run: as §1
# P. aeruginosa (9027) = assay: In vitro antibacterial MIC/MBC test; conditions: Pseudomonas aeruginosa, ATCC9027; P. aeruginosa ATCC No. 9027
# How it was run: as §1
# E. coli 198 = assay: In vitro antibacterial MIC/MBC test; conditions: Escherichia coli
# How it was run: as §1
# Campylobacter sputorum = assay: Agar dilution MIC, anaerobic microorganisms; conditions: 48 h
# Procedure: (§2) 1. Maintenance. Prior to use, all strains were maintained in the lyophilized state. During the study, cultures were examined on blood agar basal medium supplemented with 5.0% (v/v) defibrinated rabbit blood. Culture transfer was accomplished weekly with all cultures being incubated in an anaerobic atmosphere (GasPak jar; BBL).
# (§3) 2. Agar Medium. The basal test medium consisted of trypticase soy agar (40 g), yeast extract (1 g), glucose (2 g) and 960 ml of distilled water pH 7.2. [Mashimo et al., J. Clin. Micro. 17, 187-191 (1983)]. Subsequent to sterilization and cooling to 50° C., the medium was supplemented with 4% (v/v) defibrinated rabbit blood and 0.5 μg/ml menadione (Vitamin K3) The agent under evaluation was also added at this time to the concentration desired. Subsequent to pouring of the plates, they were permitted to dry at 4° C. for 24 hr.
# (§4) 3. Determination of Agent MIC. The minimal inhibitory concentration (MIC) of the various test agents was determined using an agar dilution technique. Agents and appropriate reference compounds were added to achieve a series of concentrations ranging between 32 μg/ml and 0.007 μg/ml. The inocula were prepared from 96-hr. cultures grown on the maintenance medium. Subsequent to a purity evaluation, colonies were removed and suspended in trypticase soy broth supplemented with 5 μg/ml menadione and 2% lysed rabbit blood filtrate to achieve an OD650 of 0.1 (this corresponded to approximately 10^8 cells/ml). Cultures were inoculated aerobically on the modified trypticase soy blood agar plates by use of a Steer's replicator (which delivers about 10^5 cells per spot). The plates were allowed to dry for a time not exceeding 30 min. and then incubated at 37° C. under an atmosphere of […], 10% H2 and 5% CO2 maintained in an anaerobic chamber (Coy Manufacturing Co.) for 48 hr. The MIC was defined as the lowest concentration completely inhibiting growth.
# (§5) Tetracycline stock solutions (1 mg/ml) were made subsequent to dissolution in water. Stock solutions (1 mg/ml) of the remaining test compounds were made subsequent to dissolution in 1/10 N NaOH.
# Eikenella corrodens = assay: Agar dilution MIC, anaerobic microorganisms; conditions: 48 h, read-out: MIC
# Procedure: as §2, §3, §4, §5
# F. polymorphum = assay: Agar dilution MIC, anaerobic microorganisms; conditions: 48 h; F. polymorphum; read-out: MIC
# Procedure: as §2, §3, §4, §5
# B. intermedius = assay: Agar dilution MIC, anaerobic microorganisms; conditions: Prevotella intermedia, 48 h; B. intermedius; read-out: MIC
# Procedure: as §2, §3, §4, §5
# Wolinella recta = assay: Agar dilution MIC, anaerobic microorganisms; conditions: Campylobacter rectus, 48 h
# Procedure: as §2, §3, §4, §5
# B. fragilis = assay: Agar dilution MIC, anaerobic microorganisms; conditions: Bacteroides fragilis, 48 h; B. fragilis; read-out: MIC
# Procedure: as §2, §3, §4, §5
# A. viscosus = assay: Agar dilution MIC, anaerobic microorganisms; conditions: Actinomyces viscosus, 48 h; A. viscosus; read-out: MIC
# Procedure: as §2, §3, §4, §5
Compound,MBC (E. coli 2350),MIC (E. coli 2350),MBC (E. coli AH719),MIC (E. coli AH719),MBC (P. aeruginosa (7700)),MIC (P. aeruginosa (7700)),MBC (E. coli (8739)),MIC (E. coli (8739)),MBC (P. aeruginosa MGH-2),MIC (P. aeruginosa MGH-2),MBC (P. aeruginosa (27853)),MIC (P. aeruginosa (27853)),MBC (P. aeruginosa (15442)),MIC (P. aeruginosa (15442)),MBC (E. coli Vogel),MIC (E. coli Vogel),MBC (P. aeruginosa (9027)),MIC (P. aeruginosa (9027)),MBC (E. coli 198),MIC (E. coli 198),further results
"CCn1cc(C(=O)O)c(=O)c2ccc(-c3cc(C)nc(C)c3)cc21 [Win 35,439, 1-ethyl-1,4-dihydro-7-(2,6-dimethyl-4-pyridinyl)-4-oxo-3-quinolinecarboxylic acid]",0.5 µg/mL,0.5 µg/mL,0.5 µg/mL,0.5 µg/mL,> 16 µg/mL,16 µg/mL,0.5 µg/mL,0.5 µg/mL,16 µg/mL,8 µg/mL,> 16 µg/mL,16 µg/mL,> 16 µg/mL,> 16 µg/mL,2 µg/mL,2 µg/mL,> 16 µg/mL,8 µg/mL,2 µg/mL,2 µg/mL,MIC (Campylobacter sputorum): > 10 µg/mL; MIC (Eikenella corrodens): 2 µg/mL; MIC (F. polymorphum): 4 µg/mL; MIC (B. intermedius): 0.25 µg/mL; MIC (Wolinella recta): 0.5 µg/mL; MIC (B. fragilis): > 10 µg/mL; MIC (A. viscosus): 8 µg/mL
"CCn1cc(C(=O)O)c(=O)c2cc(F)c(-c3cc(C)nc(C)c3)cc21 [Win 52,522, 1-ethyl-6-fluoro-1,4-dihydro-7-(2,6-dimethyl-4-pyridinyl)-4-oxo-3-quinolinecarboxylic acid]",0.25 µg/mL,0.25 µg/mL,0.25 µg/mL,0.25 µg/mL,16 µg/mL,16 µg/mL,0.25 µg/mL,0.25 µg/mL,16 µg/mL,16 µg/mL,16 µg/mL,16 µg/mL,16 µg/mL,16 µg/mL,0.5 µg/mL,0.25 µg/mL,16 µg/mL,4 µg/mL,0.5 µg/mL,0.5 µg/mL,MIC (Campylobacter sputorum): 8 µg/mL; MIC (Eikenella corrodens): 0.5 µg/mL; MIC (F. polymorphum): 0.5 µg/mL; MIC (B. intermedius): 0.06 µg/mL; MIC (Wolinella recta): 0.12 µg/mL; MIC (B. fragilis): 4 µg/mL; MIC (A. viscosus): 1 µg/mL
